Laboratory results published in patent US8545830B2, “Multi-functional polymeric materials and their uses” (University of Tennessee Research Foundation, priority 2003, dated 2013).

Test: In vitro release of model drugs methylene blue and BSA from NIPAAm-co-Dex-lactateHEMA hydrogel
Assay type: physicochemical
Conditions: methylene blue from NIPAAm-co-Dex-lactateHEMA gel 5/4 (FIG. 9), PBS pH 7.4, 37° C.
Description: To test the potential of the developed hydrogels as drug release devices, two model drugs (22.5 mg) were loaded during the hydrogel synthesis, which were methylene blue and bovine serum albumin (BSA), representing small molecules and protein drugs, respectively. BSA- or methylene blue-loaded dry gels were immersed in a certain volume of PBS (pH 7.4) at 25 or 37° C. At selected time points, small volume of samples were taken and tested for solute concentration. The same volume of fresh PBS (pH 7.4) was replaced to maintain a constant volume of release medium. Concentration of methylene blue was measured by a UV spectrophotometer at 668 nm. Concentration of BSA was determined through Bradford protein assay.

loaded drug released in initial burst: more than 70%
time after which drug release reached a stable stage: three
SMILES: CN(C)c1ccc2nc3ccc(=[N+](C)C)cc-3sc2c1 [methylene blue]
